Measurements reported in patent publication US20060269631A1, “Morinda citrifolia-based formulation for inhibiting metastasis of carcinogenic cells” (priority 2003, published 2006).
Several values for one entry are separate records, joined by “and”; a condition that tells them apart may be missing. Identical values can stand only once. Marks after values point to notes of the source that are not given here.

Experiments:
L-1 sarcoma cells = conditions: in vivo; cited from earlier work
Lu-ECAM-1 = conditions: among a series of carbohydrates; cited from earlier work
[1] = body weight post-implantation and toxic symptoms in the metastasis study; type: in vivo, mice
Description: (§1) In the vehicle control group, the distilled water was administrated at 10 ml/Kg IP for three consecutive weeks. The body weight for all mice was recorded at day 1, day 8, day 15, and day 22 following tumor cell implantation. The lungs were excised and fixed 21 days after tumor inoculation. Metastatic nodules on the lung surface were then counted under a dissecting microscope. The student's t test was used to determine the statistical difference between the groups of treatment and vehicle control groups in a statistic analysis.

[2] = tested on: B16-F0 murine melanoma cells; experiment: in vivo metastasis test, syngeneic tumor metastasis model of melanoma B16-F0 cells in C57BL/6J mice; conditions: for % Inhibition: vs vehicle control
Description: An in vivo metastasis test was performed, wherein groups of 6 (positive control), 6 (Morinda citrifolia-PPT test group), and 9 (vehicle control) immunocompetent (6-8 weeks old), pathogen-free (SPF) C57BL/6 male mice were used in this study and bred in animal isolator (IVC racks) under specific pathogens free (SPF) condition at 23±1° C. Viable B16F0 murine melanoma cells (ATCC CRL-6322, 6×10^4 in 0.2 mL) were inoculated into experimental mice intravenously, via tail vein. Mice were administered the Morinda citrifolia-PPT, 1% in drinking water ad libitum, for one week prior to tumor cell implantation and three weeks afterwards. Additionally, 0.8 mg Morinda citrifolia-PPT/mouse was injected intraperitoneally (IP) for 21 consecutive days following tumor cell implantation. Concurrently, the reference agent, mitomycin, was administrated IP at 1 mg/Kg twice per week for six doses after tumor cell implantation.
as §1
Relating to the Table 1 above, viable B16-F0 murine melanoma cells were inoculated into C57B1/6J mice. Mice were administered ad libitum 1% Morinda citrifolia-PPT one week prior to the implantation and throughout the experiment. […] distilled water (vehicle control), 0.8 mg/m and 4 mg/mouse of Morinda citrifolia-PPT were injected I.P. into mice for 21 consecutive days following the inoculation. Mitomycin was used as a positive control and injected twice a week at 1 mg/Kg for a total of six doses. The lungs were excised and fixed at the end of experiment and the metastasis nodules on the lung surface were counted under a dissecting microscope. The test was used to determine the significant difference between the groups of treatment and vehicle control. (SEM=standard error of mean; ^b p<0.006; ^c p<0.005.)
In the syngeneic tumor metastasis model of melanoma B16-F0 cells in C57BL/6J mice, MDA-4 was administered at 1% (10 mg/ml) by a drinking method for one week for pre-treatment, and for three weeks after the tumor cells were implanted, during the study and throughout the experiment for a total of 28 treatments. Additionally, MDA-4 at a dose of 0.8 mg/mouse was administered intraperitoneally (IP) daily for a total of 21 consecutive days after tumor cells were implanted in the mice.
During the experiment, the test substance MDA-4 was provided by Morinda, Inc. and used for in vivo anti-metastasis studies. MDA-4 was dissolved in sterile distilled water and, as stated, administrated with 1% (10 mg/ml) drinking method for one week pre-treatment, and three week after tumor cells were implanted during the study throughout the experiment for a total of 28 treatments. Additionally, as stated, MDA-4 at dose of 0.8 mg/mouse was administrated intraperitoneally (IP) daily for a total of 21 consecutive days after tumor cells implanted.
The murine melanoma cell line, B16-F0 (ATCC CRL-6322), was purchased from American Type Culture Collection and Dulbecco's Modified Eale's medium, 90% with Fetal Bovine Serum, 10% was used as culture medium. The tumor cells were incubated in an atmosphere containing 5% CO2 at 37° C. The medium was supplemented with 1% Antibiotic-Antimycotic.
Specific pathogen-free male C57BL/6J mice at 6-8 weeks of age, weighing 24-28 gms were provided by National Taiwan University Animal Center. The animals were housed in Individually Ventilated Cages Racks (IVC Racks, 36 Mini Isolator System) under Specific Pathogen-Free (SPF) conditions throughout the experiment. […]

[3] = tested on: NRK 2 cells, fibronectin-coated well; experiment: adhesion of NRK 2 cells to a fibronectin-coated well; type: cell-based, rat
Description: One assay measured the adhesion of NRK 2 (normal rat kidney cell, ATCC CRL-6509) cells to a fibronectin-coated well. Morinda citrifolia-PPT, the 0.1 N NaCl Morinda citrifolia-PPT fraction, GRGDSP peptide (SIGMA), and 0.4% DMSO (SIGMA, vehicle control) in modified MEM-HEPES buffer pH 7.4 (Hyclone) were incubated in separate wells for 30 minutes at 37° C. The reaction was initiated by addition of NRK 2 cells (2×10^6/ml) and run for 30 minutes. Each well was then washed 6 times with Dulbecco's PBS (Hyclone) followed by addition of 5 μM calcein AM (SIGMA) and a further 2 hour incubation period. Quantitation of fluorescent intensity, resulting from interaction of calcein AM with cells attached to the fibronectin coated plate, was read by a SpectrFluor Plus plate reader (AG Flwith excitation at 485 nm and emission at 535 nm.
Relating to Table 3, NRK 2 cells were used to adhere to fibronectin-coated wells. Quantitation of fluorescent intensity resulting from interaction of calcein AM with cells attached to the fibronectin coated plate was read by a SpectrFluor Plus plate reader.

[4] = individual mouse, R = diameter of nodule

For `O=C[C@H](O)[C@@H](O)[C@@H](O)[C@H](O)CO` [D-galactose], the “inhibition of liver metastasis” value (L-1 sarcoma cells) is listed as “inhibit”.

In the case of `CC(=O)NC1C(OC2C(O)C(CO)OC(OC3C(CO)OC(O)C(O)C3O)C2O)OC(CO)C(O)C1OC1OC(CO)C(O)C(O)C1OC1OC(C)C(O)C(O)C1O` (stereo not shown) [Lacto-N-fucopentose I], the “blocking of adhesion of B16-F10 to Lu-ECAM-1” value (Lu-ECAM-1) is listed as “most effectively blocked adhesion”.

With `CO[C@@]12[C@H](COC(N)=O)C3=C(C(=O)C(C)=C(N)C3=O)N1C[C@@H]1N[C@@H]12` [Mitomycin] the “Body Weight of Post-Implantation, Day 1, Mean ± SEM” value ([1]; group mean) was 27.7 ± 0.9 g, the “Body Weight of Post-Implantation, Day 8, Mean ± SEM” value ([1]; group mean) was 28.0 ± 0.6 g and the “Body Weight of Post-Implantation, Day 15, Mean ± SEM” value ([1]; group mean) was 27.3 ± 0.9 g. The “Body Weight of Post-Implantation, Day 22, Mean ± SEM” value ([1]; group mean) was 27.3 ± 0.9 g, the “body weight change compared to the vehicle control group” value ([1]; in words) was “no body weight increase” and the “Body Weight of Post-Implantation, Day 1” value ([1]; individual mouse) was 28 g and 29 g and 26 g. For the same compound, the “Body Weight of Post-Implantation, Day 8” value ([1]; individual mouse) was 28 g and 29 g and 27 g, the “Body Weight of Post-Implantation, Day 15” value ([1]; individual mouse) was 27 g and 29 g and 26 g and the “Body Weight of Post-Implantation, Day 22” value ([1]; individual mouse) was 27 g and 29 g and 26 g. The metastasis inhibition ([2]; PPT at 0.8 mg/mouse combined with free drinking, mitomycin at 1 mg/Kg) was 55%, the “% Inhibition” value ([2]; Table 1, PPT 0.8 mg/mouse, mitomycin 1 mg/Kg) was 60%^c and the “No. of Metastastic Nodules in the Lung” value ([2]; Table 4, mean ± SEM, MDA-4 drinking 1% x28 & IP 0.8 mg/mouse x21, mitomycin IP 1 mg/kg x6) was 22 ± 2. The “% Inh.” value ([2]; Table 4, vs vehicle, MDA-4 drinking 1% x28 & IP 0.8 mg/mouse x21, mitomycin IP 1 mg/kg x6) was 55%, the “No. of Metastastic Nodules in the Lung, Total Nodules, X ± SEM” value ([2]; Table 5, group mean) was 22 ± 2 and the “No. of Metastastic Nodules in the Lung, Total Nodules” value ([2]; Table 5, individual mouse) was 23 and 24 and 19. The “% Inhibition” value ([2]; Table 5, MDA-4 drinking 1% x28 & IP 0.8 mg/mouse x21, mitomycin IP 1 mg/kg x6) was 55%, the “No. of Metastastic Nodules in the Lung, 1 mm<” value [2, 4] was 6 and 7 and 4 and the “No. of Metastastic Nodules in the Lung, R < 1 mm” value [2, 4] was 16 and 17 and 15. For the same compound, the “No. of Metastastic Nodules in the Lung, R > 2 mm” value [2, 4] was 1 and 0 (2×) and the “No. of Metastasis Nodules in the Lung” value ([2]; individual mouse, lungs excised 21 days after inoculation, PPT 0.8 mg/mouse IP x21 + 1% in drinking water, mitomycin 1 mg/Kg IP x6) was 23 and 24 and 19.

With GRGDSP peptide the “Percentage adhesion inhibition, fibronectin mediated” value (“Percentage adhesion inhibition” for short) ([3]; Conc. 31.25 μg/ml) was 16, the “Percentage adhesion inhibition” value ([3]; Conc. 62.5 μg/ml) was 22 and the “Percentage adhesion inhibition” value ([3]; Conc. 125 μg/ml) was 43. The “Percentage adhesion inhibition” value ([3]; Conc. 250 μg/ml) was 78 and the “Percentage adhesion inhibition” value ([3]; Conc. 500 μg/ml) was 98.

For arabinogalctose, the “inhibition of liver metastasis” value (L-1 sarcoma cells) is listed as “inhibit”.
